Values of other authors, collected in patent US6630442B1, “Reparatives for chemosurgery and laser (thermal) therapy” (priority 1997, dated 2003).

Assays:
[1] = tested on: lipid peroxidation in tissues; conditions: tissues of vitamin E deficient chicks
[2] = tested on: acute damage to the skin by sunburn induced by ultraviolet irradiation
[3] = tested on: skin damage by ultraviolet irradiation
[4] = tested on: psoriasis
[5] = tested on: human leukocytes
[6] = tested on: granulating wounds; conditions: applied to granulating wounds
[7] = tested on: cells; conditions: in vitro
[8] = tested on: partial thickness burns or split thickness epidermal burns; conditions: mixed with topical creams, applied twice daily

C[Se]CC[C@H](N)C(=O)O [selenomethionine]
in vivo lipid peroxidation [1]: inhibits in vivo lipid peroxidation
protection against acute UV damage to the skin, measured by the minimal erythema dose ([2]; eight women, topical lotion 0.002%, 0.02% and 0.05%, solar ultraviolet simulator): effective in protecting against acute UV damage to the skin
plasma levels of selenium ([2]; volunteers after topical selenomethionine): remained unchanged
skin damage by ultraviolet irradiation (inflammation and pigmentation) ([3]; mice treated with selenomethionine): significantly less skin damage by ultraviolet irradiation
onset and incidence of skin cancers ([3]; mice treated with selenomethionine, UV irradiation): later onset and lesser incidence of skin cancers
selenium toxicity ([3]; mouse, in vivo, po): no evidence of selenium toxicity
concentration of selenium in skin in areas of topical application ([3]; topical lotion versus comparable oral doses): greater than those of the experimental animals given comparable oral doses
number of CD4+ T-cells in the reticular dermis of psoriatic lesions ([4]; human, in vivo): statistically significant increase
skin levels of selenium dependent glutathione peroxidase ([4]; normal and psoriatic skin): unchanged
increase in blood selenium post treatment ([4]; psoriasis patients with normal pretreatment selenium blood levels): 40%

(−)epigallo catechin gallate [EGCG]
hydrogen peroxide formation [5]: inhibits hydrogen peroxide formation

EGF: Epidermal growth factor is a 53 amino acid polypeptide which stimulates messenger RNA, DNA and protein synthesis (NSDSECPLSHDGYCLHDGVCMYIEALDKYACNCVVGYIGERCQYRDLKWWELR; Epidermal growth factor; UniProt P01133 971-1023, looked up)
concentrations of wound DNA and collagen hydroxyproline [6]: increase both the concentrations of DNA associated with cutaneous injury and of collagen hydroxyproline
exposure time needed to yield a mitogenic signal [7]: about five hours
healing process of wounds [8]: highly significant increase in the healing process
